Results taken from PMC12227560, “Total synthesis of a sorrentanone ester library and evaluation of its antimicrobial potential” (Scientific Reports, 2025).
≈ marks a conversion by molar mass, not a printed value.

Key:
B. subtilis ATCC6633 = assay: Antimicrobial broth micro-dilution assay (MIC); type: cell-based; settings: Bacillus subtilis; B. subtilis ATCC6633; 24 h at 37 °C; highest tested concentration 250 µg/mL; read-out: Minimum inhibitory concentration (MIC)
Text: (§1) 3. Bioactivity and Toxicity Assays
(§2) Antimicrobial assay: According to the standard broth micro-dilution assays, following the Standards of European Committee on Antimicrobial Susceptibility Testing (v 7.3.1: Method for the determination of broth dilution minimum inhibitory concentrations of antifungal agents for yeasts) for Candida spp., and according to the standard broth micro-dilution assays, recommended by the National Committee for Clinical Laboratory Standards (M07-A8) for bacteria MIC values of compounds were determinate. Compounds were dissolved in DMSO at a concentration of 50 mg/mL, and the highest tested concentration was 250 µg/mL. The inoculums were 1x10^5 colony forming units (CFU/mL), for Candida species, and bacteria species, 5x10^5 colony forming units (CFU/mL). The MIC value was recorded as the lowest concentration that inhibited the growth after 24 h at 37 °C. Additionally, 5 µL from each well of 96 well plates was transferred to Luria Agar (LA) plates for bacteria and Sabouraud agar (SAB) plates for Candida spp. and incubated for an additional 24 h at 37 °C, to determine MBC (Minimum bactericidal/fungicidal concentration) values. In Table 1. Are labeled compounds showing a difference in MBC and previously determined MIC values. […]

C. albicans ATCC10231 = assay: Antimicrobial broth micro-dilution assay (MIC); type: cell-based; settings: Candida albicans; C. albicans ATCC10231; 24 h at 37 °C; highest tested concentration 250 µg/mL; read-out: Minimum inhibitory concentration (MIC)
Text: as §1, §2

E. coli NCTC9001 = assay: Antimicrobial broth micro-dilution assay (MIC); type: cell-based; settings: Escherichia coli; E. coli NCTC9001; 24 h at 37 °C; highest tested concentration 250 µg/mL; read-out: Minimum inhibitory concentration (MIC)
Text: as §1, §2

P. aeruginosa ATCC27853 = assay: Antimicrobial broth micro-dilution assay (MIC); type: cell-based; settings: Pseudomonas aeruginosa; P. aeruginosa ATCC27853; 24 h at 37 °C; highest tested concentration 250 µg/mL; read-out: Minimum inhibitory concentration (MIC)
Text: as §1, §2

S. aureus ATCC25923 = assay: Antimicrobial broth micro-dilution assay (MIC); type: cell-based; settings: Staphylococcus aureus; S. aureus ATCC25923; 24 h at 37 °C; highest tested concentration 250 µg/mL; read-out: Minimum inhibitory concentration (MIC)
Text: as §1, §2

S. aureus MRSA = assay: Antimicrobial broth micro-dilution assay (MIC); type: cell-based; settings: Staphylococcus aureus; S. aureus MRSA; 24 h at 37 °C; highest tested concentration 250 µg/mL; read-out: Minimum inhibitory concentration (MIC)
Text: as §1, §2

Caenorhabditis elegans = assay: In vivo toxicity C. elegans survival assay; settings: for survival rate: C. elegans, 50 µg/mL (highest tested concentration), 48 h
Protocol: 3. Bioactivity and Toxicity Assays […]
Compounds were dissolved in DMSO at a concentration of 50 mg/mL, and the highest tested concentration was 250 µg/mL. […]
In vivo toxicity C. elegans assay: The C. elegans survival assay was carried out as described previously with some modifications. 8 In brief, synchronized worms (L4 stage) were suspended in a medium containing 95% M9 buffer (3.0 g of KH2PO4, 6.0 g of Na2HPO4, 5.0 g of NaCl, and 1 mL of 1 M MgSO4 × 7H2O in 1 L of water), 5% LB (Luria-Bertani) broth (Oxoid, Basingstoke, UK), and 10 μg of cholesterol (Sigma -Aldrich, Munich, Germany) per mL. The experiment was carried out in 96 -well flat -bottomed microtiter plates (Sarstedt, Nümbrecht, Germany) in the final volume of 100 μL per wel l. 25 μL of this suspension of nematodes (25 –35 nematodes) were transferred to the wells of a 96 -well microtiter plate, where 50 μL of the medium was previously added. Next, 25 μL of a solvent control (DMSO) or 25 μL of a concentrated solution was added to the test wells. The final concentrations of the compounds were 50, 25, 10, and 5 µg/mL. Subsequently, the plates were incubated at 25 °C for 2 days. The fraction of dead worms was determined after 48 h by counting the number of dead worms and the total number of worms in each well, using a stereomicroscope (SMZ143-N2GG, Motic, Germany).
As a negative control experiment, nematodes were exposed to the medium containing 1% […]
Ergosterol biosynthesis assay: Ergosterol levels were measured according to the published procedure with some minor modifications. 10 Briefly, a sing le C. albicans colony from an overnight Sabouraud dextrose agar plate was used to inoculate 50 ml of Sabouraud dextrose broth containing 0.5 MIC concentrated compounds. Incubation was performed for 18 h at 37 °C on the rotary shaker at 180 rpm. Cells were harvested by centrifugation at 3000 rpm for 5 min and washed once with sterile distilled water. The net wet weight of the cell pellet was determined. Three milliliters of 25% alcoholic potassium hydroxide solution (25 g of KOH and 35 ml of sterile distill ed water, brought to 100 ml with 100% ethanol), was added to each pellet and vortex mixed for 1 min and incubated in an 85 °C water bath for 1 h. Tubes were cooled to room temperature and extraction of sterols was done with the addition of a mixture of 1 ml of sterile distilled water and 3 ml of n-heptane followed by vigorous vortex mixing for 3 min. The heptane layer was used for spectrophotometrically measuring ergosterol concentrations by scanning absorbance between 240 nm and 300 nm using Ultrospec 3300pro 573 (Amer sham Biosciences, Amersham, UK).

[1] = system: C. albicans ATCC 10231 hyphae formation; assay: Filamentation test on Candida (solid spider medium); type: cell-based, Candida albicans; settings: 0.5 times MIC; 120 h; C. albicans ATCC10231
Protocol: Filamentation test on Candida: Using solid composition, the effect of sorrentano ne […]
albicans cells from an overnight culture grown in Sabouraud dextrose broth medium at 37 °C with or without compounds were centrifuged for 10 minutes at maximum speed, and the pellet was washed several times with sterile PBS (phosphate -buffered saline). After it, the pellet was resuspended in 200 µL PBS, and 2 µL of cell suspension was poured over solid composition and incubated at 37 °C for 120 h. Morphological changes of C. albicans ATCC

[2] = system: two S. aureus strains and B. subtilis ATCC6633; assay: Antimicrobial assay, Gram-positive bacteria; type: cell-based; settings: from MIC values
Text: as §1, §2

SMILES | MIC (B. subtilis ATCC6633) | MIC (C. albicans ATCC10231) | MIC (E. coli NCTC9001) | MIC (P. aeruginosa ATCC27853) | MIC (S. aureus ATCC25923) | MIC (S. aureus MRSA) | in vivo toxicity (in words) (Caenorhabditis elegans; C. elegans model) | survival rate (Caenorhabditis elegans) | filamentation (in words) [1] | improvement of antibacterial activity compared to sorrentanone (7) [2]
CC1=C(O)C(=O)C(C)=C(C(=O)OCCCC(C)C)C1=O [compound 36] | 31.2 µg/mL (≈ 111 µM) | 62.5 µg/mL (≈ 223 µM) | > 250 µg/mL | > 250 µg/mL | 15.6 µg/mL (≈ 55.7 µM) | 31.2 µg/mL (≈ 111 µM) | comparatively lower in vivo toxicity | over 90% | hardly observed | two- to four-fold improved activity
CC1=C(O)C(=O)C(C)=C(C(=O)OCc2ccccc2)C1=O [compound 41] | 15.6 µg/mL (≈ 54.5 µM) | 62.5 µg/mL (≈ 218 µM) | > 250 µg/mL | > 250 µg/mL | 31.2 µg/mL (≈ 109 µM) | 15.6 µg/mL (≈ 54.5 µM) | – | over 90% | hardly observed | two- to four-fold improved activity
